Legend:
[1] = system: LNCaP tumor bearing nude mice; test: Biodistribution of [68Ga]labeled ligand in PSMA positive tumor bearing nude mice; type: in vivo, mouse; conditions: 1 h post-injection, i.v., n = 3
Protocol: In a dish contained 5×10^6 cells of LNCaP in 50% Matrigel (Becton Dickinson, Heidelberg, Germany) were subcutaneously inoculated into the left shoulder of male 5- to 6-week-old CD-1 nu/nu mice (Charles River Laboratories). The tumors were allowed to grow for 8 weeks until approximately 0.5 cm^3 in size.
The ^68Ga-radiolabeled compounds were injected via tail vein (25 μCi per mouse; 0.1-0.2 nmol). At 1 h after injection, the animals were sacrificed. Organs of interest were dissected and weighed. The radioactivity was measured with a gamma counter and calculated as % ID/g.

[2] = system: LNCaP PSMA+ and PC-3 PSMA− tumor bearing mice; test: Small animal microPET imaging of [68Ga]5b in tumor bearing nude mice; type: in vivo, mouse
Protocol: This study was performed in a small animal imaging facility Male CD-1-nu/nu mice were implanted subcutaneously with 5×10^6 LNCaP cells and PC-3 cells. When the tumors reached approximately 5-10 mm in diameter, the mice were used for microPET imaging. Mice bearing LNCaP tumor and PC-3 tumors were injected via the tail vein with ˜0.5 mCi of [^68Ga]5b. Imaging studies were carried out under general anesthesia of the animals, induced with inhalation of […] and maintained with inhalation of […] isoflurane in 30% oxygen/air. Animals were positioned prone in the scanner. Whole body scan was performed for 15 min from 60 min post-injection of radiotracers. PET images were generated using the AMIDE software. MicroPET images obtained in LNCaP and PC-3 tumor xenografts from 60 min to 75 min after injection of [^68Ga]5b are shown in FIGS. 5A-5C.

[3] = system: PSMA-expressing LNCaP cells; test: Cell binding and internalization; type: cell-based, human; conditions: for Cell surface binding activity / Internalized activity: 37° C.
Protocol: The cellular uptake and internalization kinetics of the [^68Ga]1a, [^68Ga]5a and [^68Ga]5b were determined using PSMA-expressing LNCaP cells. Furthermore, to be able to discriminate between total cellular activity (sum of membrane-associated and internalized activity) and internalized activity, all incubations were followed by a washing step with mild acid at 4° C. to remove specifically cell-surface bound radioligand by displacement.
LNCaP cells (in 6-well plates in triplicates) were incubated in RPMI-1640 medium with [^68Ga]1a, [^68Ga]5a or [^68Ga]5b for 0-2 h at 37° C. At the indicated time, the medium was removed and the cells were washed twice and then incubated with a mild acid buffer (50 mM glycine, 150 mM NaCl, pH 3.0) at 4° C. for 5 min. The supernatant (containing cell surface-bound radioactivity) was pooled and the cell pellet (containing internalized radioactivity) was collected with filter paper and then radioactivity in supernatant and cell pellet was counted on a gamma counter.
LNCaP cells were incubated with [^68Ga]1a, [^68Ga]5a and [^68Ga]5b for up to 2 h at 37° C. to determine whether the compound is internalized by endocytosis. The cells were then washed with a mild acid buffer to remove extracellularly bound compound.
Non specific binding (NSB) was evaluated by blocking with 20 μM PMPA. Specificity of cell uptake (SB) was calculated by subtracting the respective signals resulting from PMPA blocking. Values are expressed as % of applied radioactivity bound to 10^6 cells.

[4] = Biodistribution of radiotracers in normal mice; type: in vivo, mouse; conditions: for Biodistribution: Blood / Biodistribution: Bone / Biodistribution: Brain / Biodistribution: Heart / Biodistribution: Kidney / Biodistribution: Liver / Biodistribution: Lung / Biodistribution: Muscle / Biodistribution: Pancreas / Biodistribution: Skin / Biodistribution: Spleen: normal male mice
How it was run: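 Male CD-1 mice received 35 μCi [^68Ga] radiotracer (0.2 nmole ligand) by tail vein. Four mice per time point sacrificed at 2, 30, 60 and 120 min p.i.; organs and blood weighed and gamma counted. %ID/g calculated against a standard dilution of the dose, decay-corrected.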

[5] = 60 min to 75 min after injection

Compound: O=C(O)CCc1ccc2c(c1)C[N+]13CC[N+]45CC(=O)[O][68Ga-3]14([O]C(=O)C3)([O]2)[O]c1ccc(CCC(=O)NCC(=O)N[C@@H](Cc2ccc(OCC(=O)N[C@@H](Cc3ccccc3)C(=O)NCCCC[C@H](NC(=O)N[C@@H](CCC(=O)O)C(=O)O)C(=O)O)cc2)C(=O)O)cc1C5 (some centres unmarked) [[^68Ga]5b]
- Organ distribution: Blood [1]: 0.46 ± 0.04 % dose/g
- Organ distribution: Bone [1]: 0.27 ± 0.07 % dose/g
- Organ distribution: Brain [1]: 0.05 ± 0.01 % dose/g
- Organ distribution: Heart [1]: 0.51 ± 0.12 % dose/g
- Organ distribution: Liver [1]: 0.78 ± 0.09 % dose/g
- Organ distribution: Lung [1]: 2.27 ± 0.37 % dose/g
- Organ distribution: Muscle [1]: 0.34 ± 0.07 % dose/g
- Organ distribution: Pancreas [1]: 0.97 ± 0.23 % dose/g
- Organ distribution: Skin [1]: 1.16 ± 0.57 % dose/g
- Organ distribution: Spleen [1]: 11.09 ± 3.35 % dose/g
- Binding in LNCaP tumor and kidney with 2-PMPA co-injection, in words ([2]; 2-PMPA 2 mg/kg co-injected): binding was abolished in the LNCaP tumor and kidney tissue
- PC-3 (PSMA negative) tumor uptake in microPET, in words [2, 5]: did not show any uptakes
- Uptake in microPET images, in words [2, 5]: uptake was seen only in the kidneys, bladder and PSMA positive LNCaP tumor
- Cell surface binding activity ([3]; 5 min): 2.50 ± 0.79 % ID/10^6 cells
- Internalized activity ([3]; 5 min): 1.58 ± 0.30 % ID/10^6 cells
- Cell surface binding activity ([3]; 15 min): 2.87 ± 0.10 % ID/10^6 cells
- Internalized activity ([3]; 15 min): 4.08 ± 0.01 % ID/10^6 cells
- Cell surface binding activity ([3]; 30 min): 3.54 ± 0.62 % ID/10^6 cells
- Internalized activity ([3]; 30 min): 8.29 ± 0.54 % ID/10^6 cells
- Cell surface binding activity ([3]; 60 min): 3.74 ± 0.33 % ID/10^6 cells
- Internalized activity ([3]; 60 min): 12.5 ± 0.46 % ID/10^6 cells
- Cell surface binding activity ([3]; 90 min): 5.03 ± 0.41 % ID/10^6 cells
- Internalized activity ([3]; 90 min): 20.0 ± 2.54 % ID/10^6 cells
- Cell surface binding activity ([3]; 120 min): 4.69 ± 0.45 % ID/10^6 cells
- Internalized activity ([3]; 120 min): 18.9 ± 1.61 % ID/10^6 cells
- Non specific binding (NSB) in LNCaP cell uptake, in words ([3]; blocking with 20 μM PMPA, FIG. 4): extremely low
- Internalized activity, comparison in words ([3]; up to 2 h at 37° C.): much higher than those of [^68Ga]1a and [^68Ga]5a
- Clearance from organs, in words ([4]; normal CD-1 male mice): cleared quickly and well except kidneys and spleen
- Biodistribution: Body leftover ([4]; normal CD-1 male mice, 2 min): 2.30 ± 0.05 % dose/g
- Biodistribution: Fat ([4]; normal CD-1 male mice, 2 min): 2.08 ± 0.27 % dose/g
- Biodistribution: Large intestine ([4]; normal CD-1 male mice, 2 min): 1.20 ± 0.20 % dose/g
- Biodistribution: Seminal vesicles ([4]; normal CD-1 male mice, 2 min): 1.47 ± 0.25 % dose/g
- Biodistribution: Small intestine ([4]; normal CD-1 male mice, 2 min): 2.46 ± 0.15 % dose/g
- Biodistribution: Stomach ([4]; normal CD-1 male mice, 2 min): 0.81 ± 0.29 % dose/g
- Biodistribution: Tail ([4]; normal CD-1 male mice, 2 min): 8.08 ± 0.78 % dose/g
- Biodistribution: Testes ([4]; normal CD-1 male mice, 2 min): 0.96 ± 0.15 % dose/g
- Biodistribution: Body leftover ([4]; normal CD-1 male mice, 30 min): 0.98 ± 0.05 % dose/g
- Biodistribution: Fat ([4]; normal CD-1 male mice, 30 min): 1.45 ± 0.13 % dose/g
- Biodistribution: Large intestine ([4]; normal CD-1 male mice, 30 min): 0.37 ± 0.04 % dose/g
- Biodistribution: Seminal vesicles ([4]; normal CD-1 male mice, 30 min): 1.13 ± 0.19 % dose/g
- Biodistribution: Small intestine ([4]; normal CD-1 male mice, 30 min): 1.03 ± 0.07 % dose/g
- Biodistribution: Stomach ([4]; normal CD-1 male mice, 30 min): 0.31 ± 0.07 % dose/g
- Biodistribution: Tail ([4]; normal CD-1 male mice, 30 min): 2.92 ± 0.95 % dose/g
- Biodistribution: Testes ([4]; normal CD-1 male mice, 30 min): 1.14 ± 0.21 % dose/g
- Biodistribution: Body leftover ([4]; normal CD-1 male mice, 60 min): 0.52 ± 0.11 % dose/g
- Biodistribution: Fat ([4]; normal CD-1 male mice, 60 min): 0.73 ± 0.11 % dose/g
- Biodistribution: Large intestine ([4]; normal CD-1 male mice, 60 min): 0.31 ± 0.21 % dose/g
- Biodistribution: Seminal vesicles ([4]; normal CD-1 male mice, 60 min): 0.94 ± 0.22 % dose/g
- Biodistribution: Small intestine ([4]; normal CD-1 male mice, 60 min): 0.74 ± 0.17 % dose/g
- Biodistribution: Stomach ([4]; normal CD-1 male mice, 60 min): 0.17 ± 0.06 % dose/g
- Biodistribution: Tail ([4]; normal CD-1 male mice, 60 min): 1.73 ± 0.55 % dose/g
- Biodistribution: Testes ([4]; normal CD-1 male mice, 60 min): 0.82 ± 0.06 % dose/g
- Biodistribution: Body leftover ([4]; normal CD-1 male mice, 120 min): 0.27 ± 0.01 % dose/g
- Biodistribution: Fat ([4]; normal CD-1 male mice, 120 min): 0.35 ± 0.04 % dose/g
- Biodistribution: Large intestine ([4]; normal CD-1 male mice, 120 min): 0.54 ± 0.16 % dose/g
- Biodistribution: Seminal vesicles ([4]; normal CD-1 male mice, 120 min): 0.64 ± 0.10 % dose/g
- Biodistribution: Small intestine ([4]; normal CD-1 male mice, 120 min): 0.45 ± 0.12 % dose/g
- Biodistribution: Stomach ([4]; normal CD-1 male mice, 120 min): 0.22 ± 0.05 % dose/g
- Biodistribution: Tail ([4]; normal CD-1 male mice, 120 min): 0.55 ± 0.04 % dose/g
- Biodistribution: Testes ([4]; normal CD-1 male mice, 120 min): 0.68 ± 0.06 % dose/g
- Biodistribution: Blood ([4]; 2 min): 7.94 ± 0.52 % dose/g
- Biodistribution: Bone ([4]; 2 min): 2.16 ± 0.11 % dose/g
- Biodistribution: Brain ([4]; 2 min): 0.19 ± 0.02 % dose/g
- Biodistribution: Heart ([4]; 2 min): 4.33 ± 0.11 % dose/g
- Biodistribution: Kidney ([4]; 2 min): 50.32 ± 3.31 % dose/g
- Biodistribution: Liver ([4]; 2 min): 2.97 ± 0.24 % dose/g
- Biodistribution: Lung ([4]; 2 min): 5.75 ± 0.26 % dose/g
- Biodistribution: Muscle ([4]; 2 min): 1.97 ± 0.16 % dose/g
- Biodistribution: Pancreas ([4]; 2 min): 2.18 ± 0.04 % dose/g
- Biodistribution: Skin ([4]; 2 min): 2.38 ± 0.10 % dose/g
- Biodistribution: Spleen ([4]; 2 min): 3.86 ± 0.57 % dose/g
- Biodistribution: Blood ([4]; 30 min): 1.13 ± 0.13 % dose/g
- Biodistribution: Bone ([4]; 30 min): 0.60 ± 0.02 % dose/g
- Biodistribution: Brain ([4]; 30 min): 0.05 ± 0.01 % dose/g
- Biodistribution: Heart ([4]; 30 min): 0.98 ± 0.06 % dose/g
- Biodistribution: Kidney ([4]; 30 min): 73.96 ± 5.56 % dose/g
- Biodistribution: Liver ([4]; 30 min): 0.95 ± 0.11 % dose/g
- Biodistribution: Lung ([4]; 30 min): 2.63 ± 0.08 % dose/g
- Biodistribution: Muscle ([4]; 30 min): 0.67 ± 0.05 % dose/g
- Biodistribution: Pancreas ([4]; 30 min): 0.80 ± 0.09 % dose/g
- Biodistribution: Skin ([4]; 30 min): 1.14 ± 0.15 % dose/g
- Biodistribution: Spleen ([4]; 30 min): 1.70 ± 0.44 % dose/g
- Biodistribution: Blood ([4]; 60 min): 0.48 ± 0.11 % dose/g
- Biodistribution: Bone ([4]; 60 min): 0.38 ± 0.04 % dose/g
- Biodistribution: Brain ([4]; 60 min): 0.03 ± 0.00 % dose/g
- Biodistribution: Heart ([4]; 60 min): 0.40 ± 0.09 % dose/g
- Biodistribution: Kidney ([4]; 60 min): 62.77 ± 12.55 % dose/g
- Biodistribution: Liver ([4]; 60 min): 0.54 ± 0.09 % dose/g
- Biodistribution: Lung ([4]; 60 min): 1.28 ± 0.31 % dose/g
- Biodistribution: Muscle ([4]; 60 min): 0.31 ± 0.07 % dose/g
- Biodistribution: Pancreas ([4]; 60 min): 0.52 ± 0.02 % dose/g
- Biodistribution: Skin ([4]; 60 min): 0.58 ± 0.19 % dose/g
- Biodistribution: Spleen ([4]; 60 min): 1.71 ± 0.66 % dose/g
- Biodistribution: Blood ([4]; 120 min): 0.27 ± 0.07 % dose/g
- Biodistribution: Bone ([4]; 120 min): 0.26 ± 0.01 % dose/g
- Biodistribution: Brain ([4]; 120 min): 0.02 ± 0.00 % dose/g
- Biodistribution: Heart ([4]; 120 min): 0.22 ± 0.06 % dose/g
- Biodistribution: Kidney ([4]; 120 min): 49.00 ± 4.76 % dose/g
- Biodistribution: Liver ([4]; 120 min): 0.37 ± 0.06 % dose/g
- Biodistribution: Lung ([4]; 120 min): 0.61 ± 0.07 % dose/g
- Biodistribution: Muscle ([4]; 120 min): 0.16 ± 0.01 % dose/g
- Biodistribution: Pancreas ([4]; 120 min): 0.32 ± 0.02 % dose/g
- Biodistribution: Skin ([4]; 120 min): 0.26 ± 0.02 % dose/g
- Biodistribution: Spleen ([4]; 120 min): 1.39 ± 0.38 % dose/g

Source: US10688200B2, “Urea-based prostate specific membrane antigen (PSMA) inhibitors for imaging and therapy” (Five Eleven Pharma Inc., priority 2015, dated 2020)
